Experimental data as given in PubChem BioAssay (NCI).
Where “and” joins values, the source holds several entries; their conditions need not be identical. Equal entries are not always repeated.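 Interpolation was linear, between the two tested concentrations surrounding the appropriate level; five concentrations were tested over 48 hours in 96-well plates. Abbreviation: GI50, concentration required for 50% inhibition of growth. TGI is the concentration that stops growth completely.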

Columns and labels:
Experiment in all cases: NCI tumour cell line growth inhibition, 48 h
[1] = system: OVCAR-8 ovarian
[2] = system: SF-268 CNS
[3] = system: SNB-19 CNS
[4] = system: LXFL 529 NSCLC
[5] = system: RPMI-8226 leukemia
[6] = system: NCI-H522 lung
[7] = system: RXF-631 renal
[8] = system: HT29 colon
[9] = system: DMS 114 small cell lung
[10] = system: SK-MEL-2 melanoma
[11] = system: DU-145 prostate

Structure (SMILES) | TGI [1] | TGI [2] | TGI [3] [µM] | TGI [4] [µM] | TGI [5] [µM] | TGI [6] | TGI [7] [µM] | TGI [8] | TGI [9] | TGI [10] | TGI [11] [µM] | GI50 [11] [µM] | GI50 [1] [µM] | GI50 [2] [µM] | GI50 [3] [µM] | GI50 [5] [µM] | GI50 [6] [µM] | GI50 [8] [µM] | GI50 [10] [µM]
COC(=O)C1CCC2(CC1)NC(=O)NC2=O (stereo not given) | > 100 µM | > 100 µM | > 100 | > 100 | > 100 | > 100 µM | > 100 | > 100 µM | > 100 µM | > 100 µM | – | – | – | – | – | – | – | – | –
Cc1nn(C(=O)CC(=O)Nc2ccccc2Cl)c(C)c1N=Nc1ccccc1Cl | > 100 µM | > 100 µM | > 100 | > 100 | – | – | > 100 | > 100 µM | > 100 µM | > 100 µM | – | – | – | – | – | – | – | – | –
O=C(Nc1cccc(Cl)c1)c1cc2cc(N=Nc3ccc(Br)cc3)ccc2oc1=O | > 100 µM | > 100 µM | > 100 | 30.5 | > 100 | > 100 µM | > 100 | > 100 µM | 56.6 µM | 52.7 µM | – | – | – | – | – | – | – | – | –
O=C(NC(c1ccccc1)C(O)C(=O)OCc1ccc2c(c1)C(=O)c1ccccc1C2=O)c1ccccc1 (stereo not given) | 41 µM | 70.1 µM | 18.3 | > 100 | > 68.1 | 63.6 µM | > 100 | > 85.2 µM | > 100 µM | 86.9 µM | > 100 | – | – | – | – | – | – | – | –
O=C1OC2C(O)COC2(OCc2c[nH]c3ccccc23)C1O (stereo not given) (tested in a mixture with another compound) | > 100 µM | > 100 µM | > 100 | > 100 | > 100 | > 100 µM | – | > 100 µM | > 100 µM | > 100 µM | – | – | – | – | – | – | – | – | –
COc1ccc2nccc(C3OC(=O)N4CCC(=O)CC34)c2c1 (stereo not given) | > 100 µM | > 100 µM | > 100 | > 100 | > 100 | 28.7 µM | > 100 | > 100 µM | – | > 100 µM | – | – | – | – | – | – | – | – | –
Cc1cn2cc(-c3ccncc3)nc2s1 | > 100 µM | > 100 µM | > 100 | > 100 | > 90.2 | > 100 µM | > 100 | > 100 µM | > 100 µM | > 100 µM | – | – | – | – | – | – | – | – | –
COc1ccc(/C=C(\NC(=O)c2ccccc2)c2nc3ccccc3[nH]2)cc1 | > 100 µM | > 100 µM | > 100 | > 100 | 69.9 | > 100 µM | – | > 100 µM | 90.6 µM | 48.4 µM | – | – | – | – | – | – | – | – | –
CCc1cccc(C(C)C)c1C1C(=O)C(=O)N(c2nc3ccccc3s2)C(=O)C1=O | – | > 100 µM | > 100 | > 100 | > 100 | – | > 100 | > 100 µM | > 100 µM | > 100 µM | – | – | – | – | – | – | – | – | –
O=S(O)CCCSSCCCCSSCCCS(=O)O | > 100 µM | > 100 µM | > 100 | > 100 | – | > 100 µM | – | > 100 µM | > 100 µM | > 100 µM | – | – | – | – | – | – | – | – | –
O=C1c2ccccc2CC1C1(O)C(=O)Nc2c(Cl)cc(Cl)cc21 (stereo not given) | > 100 µM | > 100 µM | > 100 | > 100 | > 100 | 47.3 µM | > 100 | > 100 µM | 68.8 µM | > 100 µM | – | – | – | – | – | – | – | – | –
CCN(CC)CC(C(=O)Nc1c(C)cccc1C)/C(C)=N/NC(N)=S (stereo not given) | > 100 µM | > 100 µM | – | > 100 | > 100 | > 100 µM | > 100 | > 100 µM | > 100 µM | > 100 µM | – | – | – | – | – | – | – | – | –
O=c1c2ccccc2nc(-c2ccccc2Cl)n1NC1OC(CO)C(O)C(O)C1O (stereo not given) | > 100 µM | > 100 µM | > 100 | > 100 | > 100 | > 100 µM | – | > 100 µM | > 100 µM | > 100 µM | – | – | – | – | – | – | – | – | –
COc1cc(C2C(C(=O)Nc3ccc(Cl)c(Cl)c3)=C(C)NC(C)=C2C(=O)Nc2ccc(Cl)c(Cl)c2)ccc1O | 40.3 µM | 30.8 µM | 25.6 | 21.2 | 30.1 | 14.7 µM | – | 31.7 µM | 24.2 µM | 23.5 µM | – | – | – | – | – | – | – | – | –
CC1CCCC2(O1)OC1CC(=O)OC1C1=C2C(=O)c2ccccc2C1=O (stereo not given) | 7.06 µM | 14.9 µM | 30.5 | 2.76 | 4.27 | 3.65 µM | – | 11 µM | 3.35 µM | 6.11 µM | – | – | – | – | – | – | – | – | –
O=[N+]([O-])c1ccc(-c2ccc(C3=Nn4c(nnc4-c4ccc(Cl)cc4)SC3)o2)cc1 | > 100 µM | > 100 µM | > 76.8 | > 100 | > 100 | > 100 µM | > 100 | > 100 µM | > 100 µM | > 100 µM | – | – | – | – | – | – | – | – | –
COc1cccc2c1C(=N)c1c(O)c3c(c(O)c1C2=O)C[C@@](O)(C(C)=O)C[C@@H]3OC1CC(N)C(O)C(C)O1 (stereo not given in full) | 2.62 µM and 3.56 µM | 3.07 µM and 4.61 µM and 5.69 µM | – | 3.54 | – | 2.4 µM and 1.13 µM and 1.91 µM | 3.11 | 7.19 µM and 4.43 µM and 1.71 µM | 0.73 µM and 1.46 µM | 4.6 µM and 6.27 µM and 1.23 µM | 0.0618 | 0.018 | – | – | – | – | – | – | –
S=C(N/N=C/c1ccccc1)NC1CC(c2ccccc2)Oc2ccccc21 (stereo not given) | > 100 µM | > 100 µM | > 100 | > 100 | – | > 100 µM | – | > 100 µM | > 100 µM | > 100 µM | – | – | – | – | – | – | – | – | –
COCC(O)CN1C(N)=NC(O)C1O (stereo not given) | > 100 µM | > 100 µM | > 100 | > 100 | – | > 100 µM | – | > 100 µM | > 100 µM | > 100 µM | – | – | – | – | – | – | – | – | –
N#Cc1c(-c2ccc(Cl)cc2)n([O-])c2ccccc2[n+]1=O | 39 µM | 33.8 µM | 48.6 | – | 5.11 | 38.5 µM | – | 42.2 µM | – | > 100 µM | 32.8 | 18.1 | 9.68 | 14.6 | 20.6 | 1.99 | 14.7 | 17.2 | 37.3
